According to ChEMBL document CHEMBL1781926, “Synthesis of 1-naphtylpiperazine derivatives as serotoninergic ligands and their evaluation as antiproliferative agents” (Eur J Med Chem, 2011):
Active and inactive are the calls of the source. The rule behind the calls is not given here.

Assays:
[1] = molecular target: T1, Adrenergic receptor alpha-2 (Rattus norvegicus, UniProt P22086+P19328+P22909); test: Displacement [3H]yohimbine from alpha 2 adrenergic receptor in rat brain cortex homogenates after 30 mins by liquid scintillation counting; assay type: tissue-based
T1 sequence (P22086 whole entry): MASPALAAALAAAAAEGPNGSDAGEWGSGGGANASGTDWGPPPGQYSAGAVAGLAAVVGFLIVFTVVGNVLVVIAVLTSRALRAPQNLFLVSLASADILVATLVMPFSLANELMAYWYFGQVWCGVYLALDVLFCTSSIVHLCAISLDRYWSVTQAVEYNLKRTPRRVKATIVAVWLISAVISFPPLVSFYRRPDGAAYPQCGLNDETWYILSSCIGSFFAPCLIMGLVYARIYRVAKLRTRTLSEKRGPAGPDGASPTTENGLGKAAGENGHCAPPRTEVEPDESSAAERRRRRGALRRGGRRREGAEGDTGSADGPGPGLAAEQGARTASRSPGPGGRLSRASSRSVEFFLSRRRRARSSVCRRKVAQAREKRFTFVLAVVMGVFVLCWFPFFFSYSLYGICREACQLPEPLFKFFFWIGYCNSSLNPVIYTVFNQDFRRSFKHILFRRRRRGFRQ
T1 sequence (P19328 whole entry): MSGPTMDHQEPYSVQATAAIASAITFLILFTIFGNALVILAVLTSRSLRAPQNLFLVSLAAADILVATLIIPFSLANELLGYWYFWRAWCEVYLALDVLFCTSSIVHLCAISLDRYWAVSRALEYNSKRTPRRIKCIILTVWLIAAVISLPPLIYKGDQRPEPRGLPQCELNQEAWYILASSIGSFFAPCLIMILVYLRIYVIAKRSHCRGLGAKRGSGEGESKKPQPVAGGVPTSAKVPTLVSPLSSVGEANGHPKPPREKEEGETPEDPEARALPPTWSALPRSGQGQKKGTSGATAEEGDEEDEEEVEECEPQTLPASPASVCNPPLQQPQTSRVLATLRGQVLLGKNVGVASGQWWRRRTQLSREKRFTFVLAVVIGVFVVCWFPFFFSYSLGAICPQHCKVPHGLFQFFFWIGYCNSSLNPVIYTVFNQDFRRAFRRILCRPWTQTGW
T1 sequence (P22909 whole entry): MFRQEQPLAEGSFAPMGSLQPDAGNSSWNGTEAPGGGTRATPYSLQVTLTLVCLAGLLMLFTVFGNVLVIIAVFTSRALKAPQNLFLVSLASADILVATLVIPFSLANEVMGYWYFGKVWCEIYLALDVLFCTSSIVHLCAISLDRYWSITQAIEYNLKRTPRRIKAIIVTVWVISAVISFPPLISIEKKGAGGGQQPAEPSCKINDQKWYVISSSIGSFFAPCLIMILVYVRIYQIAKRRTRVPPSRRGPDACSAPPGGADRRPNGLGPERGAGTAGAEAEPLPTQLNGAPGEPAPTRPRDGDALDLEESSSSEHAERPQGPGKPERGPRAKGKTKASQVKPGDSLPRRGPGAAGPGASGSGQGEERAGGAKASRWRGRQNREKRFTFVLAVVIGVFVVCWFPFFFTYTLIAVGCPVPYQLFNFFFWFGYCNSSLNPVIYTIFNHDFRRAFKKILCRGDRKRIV

[2] = molecular target: T2, 5-hydroxytryptamine receptor 2C (Rattus norvegicus, UniProt P08909); test: Displacement of [3H]mesulergine from 5HT2C receptor in Sprague-Dawley rat frontal cortical homogenates after 15 mins
T2 sequence (P08909 whole entry): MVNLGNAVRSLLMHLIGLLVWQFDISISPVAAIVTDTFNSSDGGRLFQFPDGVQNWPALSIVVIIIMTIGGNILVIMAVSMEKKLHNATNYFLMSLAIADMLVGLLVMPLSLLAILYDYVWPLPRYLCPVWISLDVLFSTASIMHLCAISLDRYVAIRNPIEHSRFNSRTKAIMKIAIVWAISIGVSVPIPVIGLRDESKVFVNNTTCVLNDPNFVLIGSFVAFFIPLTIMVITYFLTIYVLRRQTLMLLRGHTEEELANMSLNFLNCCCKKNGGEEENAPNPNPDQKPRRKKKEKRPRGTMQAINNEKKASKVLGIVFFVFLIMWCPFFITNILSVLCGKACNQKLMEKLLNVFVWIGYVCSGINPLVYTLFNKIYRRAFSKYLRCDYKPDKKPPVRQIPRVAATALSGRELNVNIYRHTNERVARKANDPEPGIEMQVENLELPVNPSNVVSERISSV

[3] = molecular target: T3, 5-hydroxytryptamine receptor 1A (Rattus norvegicus, UniProt P19327); test: Displacement of [3H]8-OH-DPAT from 5HT1A receptor in Sprague-Dawley rat brain cortex homogenates after 30 mins by liquid scintillation counting; assay type: tissue-based
T3 sequence (P19327 whole entry): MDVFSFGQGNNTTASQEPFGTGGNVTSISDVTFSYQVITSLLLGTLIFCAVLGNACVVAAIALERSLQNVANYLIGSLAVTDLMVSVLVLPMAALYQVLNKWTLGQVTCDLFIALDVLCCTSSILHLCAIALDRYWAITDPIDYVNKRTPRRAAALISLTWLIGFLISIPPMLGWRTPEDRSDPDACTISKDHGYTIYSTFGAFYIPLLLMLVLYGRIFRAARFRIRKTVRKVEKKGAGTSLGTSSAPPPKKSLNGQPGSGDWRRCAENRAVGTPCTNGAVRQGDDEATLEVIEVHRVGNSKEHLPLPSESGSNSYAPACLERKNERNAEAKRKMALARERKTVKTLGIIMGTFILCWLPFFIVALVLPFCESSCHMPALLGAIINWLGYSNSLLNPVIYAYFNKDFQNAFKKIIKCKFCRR

PC-3 = test: Antiproliferative activity against human PC3 cells assessed as growth inhibition after 96 hrs by SRB assay; assay type: functional, cell-based; settings: for IC50: PC-3, 96 h
D(1A) dopamine receptor = D(1A) dopamine receptor (Rattus norvegicus, UniProt P18901); test: Displacement of [3H]SCH 23390 from dopamine D1 receptor in rat corpora striatum homogenates after 15 mins by liquid scintillation counting
Sequence of D(1A) dopamine receptor (P18901 whole entry): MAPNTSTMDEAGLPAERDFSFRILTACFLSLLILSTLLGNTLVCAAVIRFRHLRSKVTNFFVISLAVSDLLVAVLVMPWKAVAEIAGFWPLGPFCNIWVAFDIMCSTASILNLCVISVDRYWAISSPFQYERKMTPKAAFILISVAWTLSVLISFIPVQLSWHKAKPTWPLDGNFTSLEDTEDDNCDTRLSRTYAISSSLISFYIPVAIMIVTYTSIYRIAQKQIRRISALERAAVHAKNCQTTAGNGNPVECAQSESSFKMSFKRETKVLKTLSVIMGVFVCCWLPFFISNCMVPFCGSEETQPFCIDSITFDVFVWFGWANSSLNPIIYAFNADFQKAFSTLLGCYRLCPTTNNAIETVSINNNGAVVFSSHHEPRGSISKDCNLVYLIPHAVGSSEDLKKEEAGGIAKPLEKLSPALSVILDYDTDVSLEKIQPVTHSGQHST

Row | SMILES | Ki [1] | Ki ([2]; read-out: Ki) | Ki [3] | IC50 (PC-3) | Ki (D(1A) dopamine receptor) | Ki [2] | growth inhibition (GI) (PC-3)
1 | O=c1c2ccccc2nnn1CCCN1CCN(c2cccc3ccccc23)CC1 | 3.6 µM | > 10 µM | 0.00779 µM | 10.5 µM | > 10 µM | – | Dose-dependent effect
2 | O=c1c2ccccc2nnn1CCN1CCN(c2cccc3ccccc23)CC1 | 1.88 µM | > 10 µM | – | 10.6 µM | > 10 µM | – | Dose-dependent effect
3 | N#C/N=C(\NCCCN1CCN(c2cccc3ccccc23)CC1)c1ccccn1 | > 10 µM | – | 0.00585 µM | 23.8 µM | > 10 µM | Not Active | –
4 | O=C1C2C3C=CC(C3)C2C(=O)N1OCCN1CCN(c2cccc3ccccc23)CC1 (configuration not stated) | 1.2 µM | – | 0.00158 µM | 47.7 µM | > 10 µM | Not Active | –

More lines, main results first:

Row | Ki [1] | Ki ([2]; read-out: Ki) | Ki [3] | IC50 (PC-3) | Ki (D(1A) dopamine receptor) | Ki [2] | SMILES | growth inhibition (GI) (PC-3)
5 | > 10 µM | – | > 10 µM | 12.3 µM | > 10 µM | Not Active | O=c1c2ccccc2nnn1OCCCN1CCN(c2cccc3ccccc23)CC1 | –
6 | 0.189 µM | – | 0.000293 µM | 13 µM | > 10 µM | Not Active | O=C1C2C3C=CC(C3)C2C(=O)N1OCCCN1CCN(c2cccc3ccccc23)CC1 (configuration not stated) | Dose-dependent effect
7 | > 10 µM | – | > 10 µM | – | > 10 µM | Not Active | O=c1c2ccccc2nnn1OCCN1CCN(c2cccc3ccccc23)CC1 | inactive
